5 molecules from patent publication US7737250B2, “Peptides for treating axonal damage, inhibition of neurotransmitter release and pain transmission, and blocking calcium influx in neurons” (Mount Sinai School of Medicine of New York University, priority 2003, dated 2010) can be followed below.

Entries after “also recorded” stand apart in the source; their conditions may differ.

The subject of test [1] is cell-surface myc-L1-CAM on ND-7 cells. The test can be described thus: L1-CAM diffusion behavior assay: movement of 9E10-coated beads bound to myc-L1-CAM (video microscopy, laser tweezers). It counts as cell-based, rat. Particulars: ND-7 cells expressing wild-type myc-L1-CAM; cytochalasin D 2 μM, nocadazole 1 μM, NGF 100 ng/mL 1 hour. The source says: Video microscopy, laser tweezers, and data analysis: The 9E10-coated latex beads were then placed and held with an optical gradient laser trap on the surface of transfected cells at a distance of between 0.5 and 1 μm from the leading edge for 2 seconds. The laser trap consisted of a Titanium Sapphire (Coherent; model 890) solid state laser pumped by a 5 W frequency-doubled Neodymnium Vanadate laser (Verdi; Coherent) and tuned to 800 nm. This wavelength was previously determined to generate the fewest heating artifacts in live cells (Svoboda and Block. Biomol Struct 1994;23:-247-285 and Choquet et al. Cell 1997;88:39-48). Laser power at the output of the Titanium Sapphire laser was 40 mW, and prepared beads were placed and held on the cell surface for less than 3 sec to further reduce the possibility of heating artifacts. Laser light was introduced through the television port of the Axiovert microscope.
Video images of bead movement were collected using a newvicon camera (Dage MTI; VE-1000N) and background subtraction and contrast enhancement were carried using a Hamamatsu Argus 20 image processor. Raw data were recorded to sVHS video tape for subsequent analysis. Video recordings were subsequently digitized onto an Intel processor-based computer running the Isee imaging software (Isee Imaging) running under Red Hat Linux 7.1. Quantification of bead movement was carried out in Isee. Diffusional analysis was carried out using a custom spreadsheet in Excel (Microsoft). This spreadsheet carries out 4 operations: first, it scales the data from pixel measurements to nm using the appropriate scale factor (determined by the magnification used to observe bead movement); second, it subtracts the first point from all of the data, to set the origin at 0,0 (x,y coordinates); third, it rotates (in two dimensional space) the data around the origin so that the orientation of the cell is the same from trial to trial (here, the data was set so that the cells all face to the left); and fourth, the spreadsheet calculates the mean square displacement (MSD) data which are used to calculate diffusion coefficients and bead velocity. Individual traces were scored blind for classes of behavior. Statistical analysis of percentages of trials was carried out using chi-squared analysis or a Fisher's exact probability test.
MSD values were calculated as previously described (see Qian et al, 1991; Biophysical Journal 60 p910). For these calculations, the squared displacement (a^2+b^2; where a=xn+t−xn, b=a=yn+t−yn for any two points separated by time t) of the bead was calculated between two points in the data set. The mean of the squared displacements was calculated for each time interval t=1 to m, where m is the time interval that equals 10% of the length of the data set. The mean displacement was plotted with respect to time giving a curve with a linear or quadratic shape, depending on the behavior of the bead. Diffusion rates and velocity were calculated by fitting the curve with the equation MSD=4Dt+v^2t^2, where D is the diffusion coefficient, v is the velocity and t is time. D and v were calculated for each bead independently and presented as averages or as individual values, as described in each case.
Cell culture and transfection: ND-7 cells (rat neuroblastoma/DRG hybrid cells) were plated and transfected with pMyc-L1-CAM, pMyc-L1-CAM-YF, pMyc-L1-CAM-YH, or pMyc-L1-CAM-STOP expression constructs as described in Example 3, supra.
In some instances, ND-7 cells transfected with pMyc-L1-CAM were treated with the cytoskeletal inhibitor cytochalasin D (2 μM; Sigma) or nocadazole (1 μM; Sigma). For these experiments treatment with DMSO (0.01%) vehicle alone served as the negative control.
In some instances, ND-7 cells transfected with pMyc-L1-CAM were treated with neural growth factor (NGF) to stimulate phosphorylation of tyrosine 1229 (Y1229) of the L1-CAM cytoplasmic domain, and thereby inhibit ankyrin binding. […]

In the next test the test system is Cav2.2 channels. The test can be described thus: Calcium channel distribution by confocal indirect immunofluorescence in DRG neurons. Particulars: DRG neurons; application of the transmitter. In kind it is cell-based, chicken.
For test [2], the target named is T1, L1-CAM-ankyrin interactions (Homo sapiens, UniProt Q01484).
T1 construct: expressed in transfected cells; host or cells: human kidney 293 cells
As to the kind of experiment: Ankyrin recruitment assay: ankyrinB co-localization with L1-CAM at the membrane of transfected 293 cells. In kind it is cell-based. The settings on record: 50 ng/mL EGF or 100 ng/mL NGF for 1 hour. As to the method:
Cell culture aid transfection: Human kidney 293 cells were cultured in DMEM medium (Gibco) supplemented with penicillin, streptomycin, L-glutamine, and 10% fetal bovine serum (Hyclone). The pMyc-L1-CAM or pL1-CAM-GFP expression constructs were transfected into cultured human kidney 293 cells using Lipofectamine plus (Invitrogen) according to manufacturer instructions. Cells were cultured for 24-48 hours and then used, or cultured continuously in the presence of 0.5 μg.mL G418 (Gibco) to select for stably transfected cells lines, to generate stable pooled lines of L1-CAM-expressing cells.
In some instances, transfected 293 cells were treated with neural growth factor (NGF) or epidermal growth factor (EGF) to stimulate phosphorylation of tyrosine 1229 (Y1229) of the L1-CAM cytoplasmic domain, and thereby inhibit ankyrin binding. In these cases, cells were treated with 50 ng/mL EGF (Gibco) or 100 ng/mL NGF (Gibco) for 1 hour prior to the assay. […]
Ankyrin and L1-CAM were detected by indirect immunofluorescence in double-labeled confocal sections through cell aggregates to permit the visualization of L1 and ankyrinB at the cell membrane. Expression of myc-L1-CAM was detected using a polyclonal anti-L1-CAM rabbit antibody. […] Ankyrin was detected using a monoclonal anti-ankyrinB mouse antibody (BD PharMingen). […]
Quantification of ankyrin immunolocalization: Confocal micrographs were then used to quantify the degree of ankyrin localization to the cell membrane of myc-L1-CAM expressing cells. Images were analyzed using ImageJ (NIH) under Macintosh OSX. The method for quantifying ankyrinB localization to the membrane uses densitometry of a line scan perpendicular to and crossing a cell-cell junction. […]
The densitometry intensity profile of the scanned line was used to determine a minimum ankyrinB signal for comparison to the value of the ankyrinB signal at the point where the maximum signal in the L1-CAM channel occurs. […] Minima were determined from the regions of the line overlapping the cytoplasm of either of the two cells. […]

Test [3] deals with secretion of Substance P from DRG neurons. As to the kind of experiment: Substance P secretion, single-cell immunoblot assay. In kind it is cell-based, chick. Particulars: baclofen in addition to AP-YF peptide. As to the method: Secretion Assay: Secretion of substance P was analyzed using the single-cell immunoblot method adapted from Huang and Neher (Huang, L. Y., Neher, E. (1996) Neuron. 17, 135-45.). Briefly, polyvinylidene difluoride transfer membranes (Immobilon P brand from Millipore) were cut to […] and placed in a 6-well plate. Membranes were pre-wetted with methanol for 20 s, rinsed with distilled water and allowed to equilibrate in test solution for >1 hr. In parallel, DRG cells plated were incubated with media containing AP-YF or AP-Scr (1.4 μg/ml) for 1 hour. This media was removed, and replaced with 70 μl of test solution. The membranes were then placed on top of the cells, and allowed to incubate at 37° C. in a humidified CO2 incubator for 30 min. The membranes were then carefully removed from the cells and allowed to dry completely and fixed with powdered paraformaldehyde at 80° C. for 1 hr. Fixed membranes were rinsed in PBS (1 mM KH2PO4, 10 mM Na2HPO4, 137 mM NaCl, 2.7 mM KCl) containing 1% Triton X-100 (PBS-T) to remove excess paraformaldehyde, and blocked with PBS-T containing 3% fetal bovine serum (FBS) for 30 min at room temperature. The membranes were incubated with anti-substance P antibody (Santa Cruz) at 1:200 dilution in PBS-T with 1% FBS overnight in 37° C. incubator. The next day the membranes were developed with a peroxidase/diamninobenzidine (DAB) reaction using the ABC staining kit from Santa Cruz Biotechnology. Images were taken using a CCD camera, and analyzed using Photoshop and NIH image software. Data were plotted by assigning an upper and lower limit of gray values and plotting % of cells at a range within those limits. By plotting graphs as % of cells in a dynamic range, multiple experimental runs were pooled.

The test system of test [4] is cell-surface myc-L1-CAM on ND-7 cells. As to the kind of experiment: Cytoskeleton attachment assay: resistance of 9E10 bead-myc-L1-CAM complexes to lateral displacement by laser trap. In kind it is cell-based, rat. Particulars: 2 μM cytochalasin D; ND-7 cells expressing myc-L1-CAM. As for the experimental part:
Cell culture and transfection: ND-7 cells (rat neuroblastoma/DRG hybrid cells) were cultured as described in Example 2. 24 hours prior to transfection, cultured cells were plated on coverslips coated with poly-D-lysine and laminin sealed to the bottom of 35 mm culture dishes (Mattek Corp.). Plated cells were transfected with the pL1-CAM or pMyc-L1-CAM expression constructs using Lipofectamine plus (Invitrogen) according to manufacturer's instructions. Transfected cells were cultured for 24-36 hours, and then used for live microscopy. For laser trap and video microscopy, the medium was replaced with phenol red-free serum-free L15 medium (air buffered) with 20 mM HEPES, 0.1% BSA, 0.5% ovalbumin. Cells transfected with the bicistronic expression constructs express a single mRNA encoding both the myc-L1-CAM proteins and EGFP, such that transfected cells were identified by EGFP fluorescence. […]
Video microscopy, laser tweezers, and data analysis: The 9E10-coated latex beads were then placed and held with an optical gradient laser trap on the surface of transfected cells at a distance of between 0.5 and 1 μm from the leading edge for 2 seconds. […] This wavelength was previously determined to generate the fewest heating artifacts in live cells (Svoboda and Block. Biomol Struct 1994;23:-247-285 and Choquet et al. Cell 1997;88:39-48). […]

T1 sequence (Q01484 whole entry): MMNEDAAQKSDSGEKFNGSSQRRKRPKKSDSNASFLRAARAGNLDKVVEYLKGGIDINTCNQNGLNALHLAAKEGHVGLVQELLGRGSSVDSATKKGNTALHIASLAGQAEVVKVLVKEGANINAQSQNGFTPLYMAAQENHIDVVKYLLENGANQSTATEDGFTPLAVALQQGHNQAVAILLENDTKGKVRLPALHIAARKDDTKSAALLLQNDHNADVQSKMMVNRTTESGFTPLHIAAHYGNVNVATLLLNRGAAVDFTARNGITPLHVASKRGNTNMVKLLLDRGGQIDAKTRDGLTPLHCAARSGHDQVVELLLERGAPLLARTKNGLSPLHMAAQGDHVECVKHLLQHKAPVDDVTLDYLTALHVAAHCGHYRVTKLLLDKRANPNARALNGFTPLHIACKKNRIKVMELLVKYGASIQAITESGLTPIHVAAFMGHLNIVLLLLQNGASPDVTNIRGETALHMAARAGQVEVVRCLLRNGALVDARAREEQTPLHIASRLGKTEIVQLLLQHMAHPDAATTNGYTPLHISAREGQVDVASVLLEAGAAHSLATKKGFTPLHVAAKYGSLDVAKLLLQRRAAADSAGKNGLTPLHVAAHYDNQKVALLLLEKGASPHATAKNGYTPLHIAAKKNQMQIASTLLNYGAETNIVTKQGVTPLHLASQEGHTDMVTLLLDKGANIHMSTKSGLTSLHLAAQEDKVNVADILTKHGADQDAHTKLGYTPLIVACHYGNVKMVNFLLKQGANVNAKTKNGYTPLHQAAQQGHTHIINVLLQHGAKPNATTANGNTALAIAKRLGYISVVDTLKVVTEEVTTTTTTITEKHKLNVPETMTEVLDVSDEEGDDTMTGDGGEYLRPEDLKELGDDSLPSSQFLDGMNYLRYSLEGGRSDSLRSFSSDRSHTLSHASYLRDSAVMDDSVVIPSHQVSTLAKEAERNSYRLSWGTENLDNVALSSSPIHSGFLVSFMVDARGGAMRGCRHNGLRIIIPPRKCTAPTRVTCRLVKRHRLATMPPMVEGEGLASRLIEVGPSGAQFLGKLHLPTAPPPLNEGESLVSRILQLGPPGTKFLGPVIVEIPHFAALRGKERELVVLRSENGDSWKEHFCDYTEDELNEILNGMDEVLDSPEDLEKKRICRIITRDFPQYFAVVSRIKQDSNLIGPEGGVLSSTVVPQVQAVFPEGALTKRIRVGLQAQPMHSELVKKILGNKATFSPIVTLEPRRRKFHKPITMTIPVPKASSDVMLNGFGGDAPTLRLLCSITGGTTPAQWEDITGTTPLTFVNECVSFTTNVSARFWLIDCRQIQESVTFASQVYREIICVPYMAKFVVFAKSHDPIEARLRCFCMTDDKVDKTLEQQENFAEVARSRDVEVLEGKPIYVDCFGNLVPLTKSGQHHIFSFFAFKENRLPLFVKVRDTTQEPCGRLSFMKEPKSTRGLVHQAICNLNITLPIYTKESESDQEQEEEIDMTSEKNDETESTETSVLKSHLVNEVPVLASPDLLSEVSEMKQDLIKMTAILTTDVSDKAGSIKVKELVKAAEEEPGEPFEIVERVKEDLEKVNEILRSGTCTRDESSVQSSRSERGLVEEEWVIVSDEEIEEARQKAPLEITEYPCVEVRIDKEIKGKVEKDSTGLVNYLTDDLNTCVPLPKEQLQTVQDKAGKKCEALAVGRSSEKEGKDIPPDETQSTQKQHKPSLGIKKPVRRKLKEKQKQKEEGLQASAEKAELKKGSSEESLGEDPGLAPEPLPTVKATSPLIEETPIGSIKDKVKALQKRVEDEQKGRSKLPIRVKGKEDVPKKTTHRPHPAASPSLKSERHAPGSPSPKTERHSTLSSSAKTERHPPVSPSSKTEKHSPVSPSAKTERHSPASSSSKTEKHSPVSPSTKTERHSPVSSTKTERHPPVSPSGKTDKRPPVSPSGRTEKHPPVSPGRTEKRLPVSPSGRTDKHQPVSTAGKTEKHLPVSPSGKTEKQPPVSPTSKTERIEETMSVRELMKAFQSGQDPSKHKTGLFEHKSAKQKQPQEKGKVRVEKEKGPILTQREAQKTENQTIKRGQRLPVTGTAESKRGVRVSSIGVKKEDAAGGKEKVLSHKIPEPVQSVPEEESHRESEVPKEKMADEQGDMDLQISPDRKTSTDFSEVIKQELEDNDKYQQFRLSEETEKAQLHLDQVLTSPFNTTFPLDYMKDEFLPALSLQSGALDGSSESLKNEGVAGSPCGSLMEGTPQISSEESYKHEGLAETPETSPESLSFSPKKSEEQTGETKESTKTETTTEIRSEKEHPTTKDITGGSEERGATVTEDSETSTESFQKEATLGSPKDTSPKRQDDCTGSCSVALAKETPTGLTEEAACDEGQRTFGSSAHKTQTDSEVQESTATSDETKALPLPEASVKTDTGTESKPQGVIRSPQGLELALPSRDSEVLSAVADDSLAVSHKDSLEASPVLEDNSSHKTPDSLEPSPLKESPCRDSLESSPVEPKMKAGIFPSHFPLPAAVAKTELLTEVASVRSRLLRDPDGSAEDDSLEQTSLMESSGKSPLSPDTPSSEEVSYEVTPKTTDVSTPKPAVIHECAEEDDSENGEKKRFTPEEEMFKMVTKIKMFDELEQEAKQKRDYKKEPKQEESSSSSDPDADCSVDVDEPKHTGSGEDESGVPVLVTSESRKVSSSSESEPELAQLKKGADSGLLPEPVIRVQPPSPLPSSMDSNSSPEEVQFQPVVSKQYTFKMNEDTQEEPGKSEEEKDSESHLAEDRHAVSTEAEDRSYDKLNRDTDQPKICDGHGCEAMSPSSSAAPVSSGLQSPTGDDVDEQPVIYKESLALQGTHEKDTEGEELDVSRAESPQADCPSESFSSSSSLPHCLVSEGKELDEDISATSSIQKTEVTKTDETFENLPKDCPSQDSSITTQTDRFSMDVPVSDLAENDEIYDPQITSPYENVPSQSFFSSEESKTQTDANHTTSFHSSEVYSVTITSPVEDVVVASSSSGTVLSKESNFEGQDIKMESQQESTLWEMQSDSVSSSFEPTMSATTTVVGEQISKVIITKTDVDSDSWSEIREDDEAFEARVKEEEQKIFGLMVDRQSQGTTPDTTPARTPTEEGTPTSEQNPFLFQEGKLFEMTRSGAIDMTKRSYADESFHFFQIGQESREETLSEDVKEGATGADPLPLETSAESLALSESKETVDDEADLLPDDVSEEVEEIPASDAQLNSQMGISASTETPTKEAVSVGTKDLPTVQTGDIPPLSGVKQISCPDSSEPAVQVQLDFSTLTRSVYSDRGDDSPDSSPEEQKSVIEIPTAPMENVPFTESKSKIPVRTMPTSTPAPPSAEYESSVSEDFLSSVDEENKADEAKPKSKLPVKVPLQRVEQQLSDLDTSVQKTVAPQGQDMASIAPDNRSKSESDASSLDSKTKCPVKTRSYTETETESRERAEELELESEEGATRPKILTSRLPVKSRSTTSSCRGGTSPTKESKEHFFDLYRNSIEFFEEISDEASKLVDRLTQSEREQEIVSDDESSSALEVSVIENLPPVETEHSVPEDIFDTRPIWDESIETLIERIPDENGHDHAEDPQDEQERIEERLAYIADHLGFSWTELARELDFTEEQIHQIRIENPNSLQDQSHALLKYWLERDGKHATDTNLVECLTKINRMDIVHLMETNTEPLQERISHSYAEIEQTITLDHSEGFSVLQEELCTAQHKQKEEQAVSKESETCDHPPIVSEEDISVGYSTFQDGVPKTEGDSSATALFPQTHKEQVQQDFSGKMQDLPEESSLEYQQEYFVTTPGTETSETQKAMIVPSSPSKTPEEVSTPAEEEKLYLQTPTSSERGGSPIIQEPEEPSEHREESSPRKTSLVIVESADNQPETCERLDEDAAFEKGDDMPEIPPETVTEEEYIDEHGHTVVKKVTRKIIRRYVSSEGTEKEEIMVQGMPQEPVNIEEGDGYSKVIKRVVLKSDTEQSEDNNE
Experimental for Cav2.2 channels: Antibodies: Primary antibody: rabbit anti-pan α1 binds Ca channel (1:200 dilution, [1.5 μg/ml) [Alomone Labs; Jerusalem, Israel]. Secondary antibodies: (1:200 dilution, 10 μg/ml): tetramenthylrhodamine conjugated goat anti-rabbit IgG (H+L) [Molecular Probes; Eugene, OR]
Dorsal root ganglia were dissected from 11 to 12 day old embryos, incubated for 30 min in saline containing nominal Ca 2^+ and Mg 2^+, and 0.05% collagenase (type A, Boehringer Mannheim). Ganglia were dissociated mechanically into single cells by trituration in culture medium containing Dulbecco's modified Eagle's medium supplemented with 10% horse serum, 5% chicken embryo extract, penicillin, streptomycin, glutamine, and nerve growth factor. Cells were plated at a density of ˜50,000 cells/collagen-coated 35 mm tissue culture dish and studied between 1 and 3 days in vitro.
Immunohistochemistry: Cultures grown on poly-L-lysine cover glass slips were exposed to saline or 100 mM NE (norepinephrine), fixed and permeabilized in methanol at −20° C. for 15-minutes or 20 second (for residual experiment) followed by 3×5-min washes in PHEM Buffer [60 mM PIPES, 25 mM HEPES, 10 mM EGTA, 2 mM MgCl2, pH 6.9]. Cells were alternatively fixed with 4% paraformaldehyde in PHEM buffer, pH 6.9 for 20-min, washed 3×3-min with PHEM buffer and permeabilization with 0.1% Triton X-100/PHEM buffer for 3-min. Blocking was performed using 5% BSA in PHEM Buffer for 1-h at 4 C. Following overnight incubation with primary antibody in 1% BSA and 1% normal goat sera in PHEM Buffer at 4 C. After washes with PHEM Buffer, cover slips were incubated with fluorophore-conjugated secondary antibodies in 1% BSA PHEM Buffer for 1.5 hours at room temperature in the dark. […]
Images of fixed cells were obtained with a pinhole setting of 0.95 using a UV 100× 1.4NA oil Leica objective lens and an optical zoom between 1.4 and 2× at slow acquisition speed with 4× frame averaging accumulation. The number of sections was calculated by the Leica TCS software based on acquisition of sections at 240 nm intervals in the Z-plane. […]

As for `COC(=O)Nc1nc2cc(C(=O)c3cccs3)ccc2[nH]1` [nocadazole], in test [1], the “% of trials diffusing” value was found to be 25%, the “% of trials retrograde” value was determined as 43.75% and the “% of trials stationary” value is recorded as 31.25%.
Turning to `NC[C@H](O)c1ccc(O)c(O)c1` (racemic) [norepinephrine, Norepinephrine], in the test on Cav2.2 channels, the “punctate distribution of Cav2.2 channels in the membrane” value was “rapidly (within 2s) reduced”.
Turning to EGF: epidermal growth factor (Gibco), the “ankyrin B colocalization with L1-CAM at the cell membrane” value in test [2] is given as “significant reduction; also recorded: inhibited ankyrin membrane localization”.
As for `NCC(CC(=O)O)c1ccc(Cl)cc1` (racemic) [Baclofen, 4-Amino-3-[4-chlorophenyl] butanoic acid], in test [3], the “DRG neurons secreting low levels of Substance P” value is 75%.
In the case of `C=C1[C@@H](C)[C@H]2[C@H](Cc3ccccc3)NC(=O)[C@]23[C@H](OC(C)=O)/C=C/[C@@](C)(O)C(=O)[C@@H](C)C/C=C/[C@H]3[C@@H]1O` [cytochalasin D], in test [1], the “% of trials diffusing” value stood at 83.3%, the “% of trials retrograde” value was found to be 0% and the “% of trials stationary” value was 16.7%. Moreover, the “bead rigidity on the cell surface (resistance to lateral displacement)” value in test [4] is given as “entirely abolished”.
